From patent US7494824B2, “Interactive system for presenting and eliminating substances” (Max-Planck-Gesellschaft zur Förderung der Wissenschaften e. …, priority 1997, dated 2009)

How the values were obtained:
thrombin = thrombin (Homo sapiens, UniProt P00734); settings: previous analyses, Dickneite G. et al.; cited from earlier work
[1] = Immobilization of PEG urease on miniaturized experimental PMMA capillary dialyzer; settings: 2 mg on 50 cm^2 dialyzer, after the first circulation
Experimental: (§1) As model enzyme, urease (EC 3.5.1.5., available from Sigma, order no. U 1500) is used. The preparation of a PEG-coupled urease preparation: 100 mg urease (type III, specific activity 20,000 to 30,000 U/g) are dissolved in 80 ml 0.1-mol borate buffer (pH 8) and added to 250 mg methoxy polyethylene glycol (25,000)-4-nitrophenyl carbonate and incubated for 24 h at 5° C. The reaction is stopped by a several times higher molar excess of TRIS, dialyzed against TRIS-HCl (pH 8) and developed in a HP-Q-sepharose column having a linear NaCl gradient (pH 8). The PEG urease conjugate elutes-at 180 to 200 mmol NaCl. The yield of PEG urease conjugate is 30-40%. The enzyme activity is measured by means of a urea assay. The cleaving activity is monitored by way of pH titration measuring and compared with non-conjugated urease. […] The urease coupled with 25 kD-polyethylene glycol is applied in a concentration of 2 mg (based on the protein content of the conjugate) to a miniaturized experimental capillary dialyzer having a surface of 50 cm^2. Already after the first circulation, more than 90% of the urease are immobilized on the surface. By the fifth recirculation cycle, the PEG urease is firmly installed on the surface of the membrane. […] A blood plasma solution (50 ml containing 30 mg urea) is applied to the urease-doped PMMA capillary dialyzer system. […]

[2] = Urea breakdown in blood plasma solution on urease-doped PMMA capillary dialyzer system; format: biochemical
Experimental: As model enzyme, urease (EC 3.5.1.5., available from Sigma, order no. U 1500) is used. The preparation of a PEG-coupled urease preparation: 100 mg urease (type III, specific activity 20,000 to 30,000 U/g) are dissolved in 80 ml 0.1-mol borate buffer (pH 8) and added to 250 mg methoxy polyethylene glycol (25,000)-4-nitrophenyl carbonate and incubated for 24 h at 5° C. The reaction is stopped by a several times higher molar excess of TRIS, dialyzed against TRIS-HCl (pH 8) and developed in a HP-Q-sepharose column having a linear NaCl gradient (pH 8). The PEG urease conjugate elutes-at 180 to 200 mmol NaCl. The yield of PEG urease conjugate is 30-40%. The enzyme activity is measured by means of a urea assay. The cleaving activity is monitored by way of pH titration measuring and compared with non-conjugated urease. […] The urease coupled with 25 kD-polyethylene glycol is applied in a concentration of 2 mg (based on the protein content of the conjugate) to a miniaturized experimental capillary dialyzer having a surface of 50 cm^2. Already after the first circulation, more than 90% of the urease are immobilized on the surface. By the fifth recirculation cycle, the PEG urease is firmly installed on the surface of the membrane. […] A blood plasma solution (50 ml containing 30 mg urea) is applied to the urease-doped PMMA capillary dialyzer system. In the eluate of the experimental PEG-urease-PMMA membrane, the remaining amounts of urea are identified after 5, 10, 20, and 30 minutes by way of an enzyme assay. […] The ammonia test in the blood is positive during the last 25 minutes of the experiment. From the analysis, it can be doubtlessly concluded that a pegylated enzyme, bonded to the PMMA membrane, develops a local enzyme activity and is able to generate corresponding specific interactions with its substrate in the circulating blood.

[3] = Urea assay of enzyme activity, pH titration, compared with non-conjugated urease; format: biochemical
Experimental: as §1

influence of pegylation on the ureolytic activity of the enzyme [3] | Substance | thrombin inhibiting agent quality (thrombin) | urease immobilized on the surface [1] | remaining urea in the eluate ([2]; 50 ml plasma containing 30 mg urea, after 30 min) | urea concentration in the blood plasma ([2]; 50 ml plasma containing 30 mg urea, within the first 10 min) | ammonia test in the blood ([2]; during the last 25 minutes of the experiment)
 | Mtr-Asn-D-Adf-Pip | highly specific and effective |  |  |  | 
slightly activity-increasing | PEG urease: urease (EC 3.5.1.5., Sigma) coupled with 25 kD-polyethylene glycol |  | more than 90% | unbound urea cannot be identified anymore | decreases rapidly | positive
